Patent publication US20240390340A1 (INCYTE CORPORATION, priority 2023, published 2024)
Where two headings read alike, the source gives them in different places.

Columns and labels:
KRAS G12V = KRAS G12V (Homo sapiens, UniProt P01116, G12V); experiment: GDP-GTP exchange assay (bodipy-GDP/GppNHp, SOS1), KRAS G12V; type: biochemical
Caco-2 cells = experiment: Caco2 assay (Papp A-B); type: in vitro ADME; details: test compound 50 μM, 120 min, 37° C.
Method: Caco-2 cells are grown at 37° C. in an atmosphere of 5% CO2 in DMEM growth medium supplemented with 10% (v/v) fetal bovine serum, 1% (v/v) nonessential amino acids, penicillin (100 U/mL), and streptomycin (100 μg/mL). Confluent cell monolayers are subcultured every 7 days or 4 days for Caco-2 by treatment with 0.05% trypsin containing […]. Caco-2 cells are seeded in 96-well Transwell plates. The seeding density for Caco-2 cells is 14,000 cells/well. DMEM growth medium is replaced every other day after seeding. Cell monolayers are used for transport assays between 22 and 25 days for Caco-2 cells.
Cell culture medium is removed and replaced with HBSS. To measure the TEER, the HBSS is added into the donor compartment (apical side) and receiver compartment (basolateral side). The TEER is measured by using a REMS Autosampler to ensure the integrity of the cell monolayers. Caco-2 cell monolayers with TEER values 300 Ω·cm^2 are used for transport experiments. To determine the Papp in the absorptive direction (A-B), solution of test compound (50 μM) in HBSS is added to the donor compartment (apical side), while HBSS solution with 4% BSA is added to the receiver compartment (basolateral side). The apical volume was 0.075 mL, and the basolateral volume is 0.25 mL. The incubation period is 120 min. at 37° C. in an atmosphere of 5% CO2. At the end of the incubation period, samples from the donor and receiver sides are removed and an equal volume of MeCN is added for protein precipitation. The supernatants are collected after centrifugation (3000 rpm, Allegra X-14R Centrifuge from Beckman Coulter, Indianapolis, IN) for LCMS analysis. The permeability value is determined according to the equation:
[formula] • where the flux rate (F, mass/time) is calculated from the slope of cumulative amounts of compound of interest on the receiver side, SA is the surface area of the cell membrane, VD is the donor volume, and MD is the initial amount of the solution in the donor chamber.
The symbol “+” indicates a Caco-2 value of ≤0.5, “++” indicates a Caco-2 value of >0.5 but ≤1; and “+++” indicates a Caco-2 value of >1. “NA” indicates IC50 not available.

KRAS G12D = KRAS G12D (Homo sapiens, UniProt P01116, G12D); experiment: GDP-GTP exchange assay (bodipy-GDP/GppNHp, SOS1), KRAS G12D; type: biochemical
Chain of KRAS G12D (P01116 1-188 isoform P01116-2 G12D): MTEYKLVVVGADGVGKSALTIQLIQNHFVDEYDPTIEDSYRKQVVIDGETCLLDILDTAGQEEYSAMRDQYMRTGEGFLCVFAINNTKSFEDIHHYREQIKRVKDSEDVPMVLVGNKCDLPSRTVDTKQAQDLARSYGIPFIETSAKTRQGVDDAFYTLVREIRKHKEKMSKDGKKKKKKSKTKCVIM

[1] = Table H, column G12V, for compounds isolated as several atropisomers/diastereoisomers the value for the most potent isomer is quoted, read-out: KRAS G12V exchange assay IC50
[2] = Table H, column G12D, for compounds isolated as several atropisomers/diastereoisomers the value for the most potent isomer is quoted, read-out: KRAS G12D exchange assay IC50
[3] = KRAS G12V mutant, value for the most potent isomer quoted for certain compounds, read-out: G12V (KRAS G12V exchange assay IC50)
[4] = bodipy-loaded KRAS G12D 2.5 nM, 4 h pre-incubation, value for the most potent isomer quoted for certain compounds, read-out: G12D (KRAS G12D exchange assay IC50)

Chain of KRAS G12V (P01116 1-188 isoform P01116-2 G12V): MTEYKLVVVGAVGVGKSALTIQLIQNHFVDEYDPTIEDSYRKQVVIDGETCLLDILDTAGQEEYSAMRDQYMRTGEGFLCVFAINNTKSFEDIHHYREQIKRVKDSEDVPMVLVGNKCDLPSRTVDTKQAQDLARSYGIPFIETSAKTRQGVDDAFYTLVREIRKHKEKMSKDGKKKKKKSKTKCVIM

IC50 (KRAS G12V; [1]) [nM]	Caco-2 (Caco-2 cells)	IC50 (KRAS G12D; [2]) [nM]	IC50 (KRAS G12V; [3]) [nM]	IC50 (KRAS G12D; [4]) [nM]	Compound
≤ 100	+++ (a Caco-2 value of >1)	≤ 100	–	–	Cc1nc2c(F)c(-c3cccc(Cl)c3Cl)c(CCC#N)cc2c2c1cc([C@H]1C[C@H](Oc3ccccn3)CN1C(=O)C1CC1)n2[C@H]1[C@H]2CN[C@@H]1C2 [Example 5, 3-(1-((1R,4R,5S)-2-Azabicyclo[2.1.1]hexan-5-yl)-2-((2R,4S)-1-(cyclopropanecarbonyl)-4-(pyridin-2-yloxy)pyrrolidin-2-yl)-7-(2,3-dichlorophenyl)-6-fluoro-4-methyl-1H-pyrrolo[3,2-c]quinolin-8-yl)propanenitrile]
–	++ (a Caco-2 value of >0.5 but ≤1)	–	≤ 100	≤ 100	COC[C@@H]1[C@@H](Oc2cc(OC)ncc2F)C[C@H](c2cc3c([C@@H](C)O)nc4c(F)c(-c5cccc(Cl)c5Cl)c(CCC#N)cc4c3n2[C@H]2[C@H]3CN[C@@H]2C3)N1C(=O)C1CC1 [Example 83]
≤ 100	+ (a Caco-2 value of ≤0.5)	≤ 100	–	–	Cc1ccccc1CO[C@H]1C[C@H](c2cc3c(C)nc4c(F)c(-c5cccc(Cl)c5Cl)c(CCC#N)cc4c3n2[C@H]2[C@H]3CN[C@@H]2C3)N(C(=O)C2CC2)C1 [Example 21]
≤ 100	+++ (a Caco-2 value of >1)	≤ 100	–	–	Cc1nc2c(F)c(-c3cccc(Cl)c3Cl)c(CCC#N)cc2c2c1cc([C@H]1C[C@H](Oc3ncccc3F)CN1C(=O)C1CC1)n2[C@H]1[C@H]2CN[C@@H]1C2 [Example 58, 3-(1-((1R,4R,5S)-2-Azabicyclo[2.1.1]hexan-5-yl)-2-((2R,4S)-1-(cyclopropanecarbonyl)-4-((3-fluoropyridin-2-yl)oxy)pyrrolidin-2-yl)-7-(2,3-dichlorophenyl)-6-fluoro-4-methyl-1H-pyrrolo[3,2-c]quinolin-8-yl)propanenitrile]
≤ 100	+++ (a Caco-2 value of >1)	≤ 100	–	–	Cc1nc2c(F)c(-c3cccc(Cl)c3Cl)c(CCC#N)cc2c2c1cc([C@H]1C[C@H](Oc3cnn(C(F)F)c3)CN1C(=O)C1CC1)n2[C@H]1[C@H]2CN[C@@H]1C2 [Example 48, 3-(1-((1R,4R,5S)-2-Azabicyclo[2.1.1]hexan-5-yl)-2-((2R,4S)-1-(cyclopropanecarbonyl)-4-((1-(difluoromethyl)-1H-pyrazol-4-yl)oxy)pyrrolidin-2-yl)-7-(2,3-dichlorophenyl)-6-fluoro-4-methyl-1H-pyrrolo[3,2-c]quinolin-8-yl)propanenitrile]
≤ 100	+ (a Caco-2 value of ≤0.5)	≤ 100	–	–	Cc1nc2c(F)c(-c3cccc(Cl)c3Cl)c(CCC#N)cc2c2c1cc([C@H]1C[C@H](OCc3ccsn3)CN1C(=O)C1CC1)n2[C@H]1[C@H]2CN[C@@H]1C2 [Example 14]
≤ 100	++ (a Caco-2 value of >0.5 but ≤1)	≤ 100	–	–	Cc1ccccc1O[C@H]1C[C@H](c2cc3c(C)nc4c(F)c(-c5cccc(Cl)c5Cl)c(CCC#N)cc4c3n2[C@H]2[C@H]3CN[C@@H]2C3)N(C(=O)C2CC2)C1 [Example 28, 3-(1-((1R,4R,5S)-2-azabicyclo[2.1.1]hexan-5-yl)-2-((2R,4S)-1-(cyclopropanecarbonyl)-4-(o-tolyloxy)pyrrolidin-2-yl)-7-(2,3-dichlorophenyl)-6-fluoro-4-methyl-1H-pyrrolo[3,2-c]quinolin-8-yl)propanenitrile]
≤ 100	+ (a Caco-2 value of ≤0.5)	≤ 100	–	–	Cc1nc2c(F)c(-c3cccc(Cl)c3Cl)c(CCC#N)cc2c2c1cc([C@H]1C[C@H](OCc3noc4ccccc34)CN1C(=O)C1CC1)n2[C@H]1[C@H]2CN[C@@H]1C2 [Example 6]
≤ 100	++ (a Caco-2 value of >0.5 but ≤1)	≤ 100	–	–	COc1cccc(F)c1CO[C@H]1C[C@H](c2cc3c(C)nc4c(F)c(-c5cccc(Cl)c5Cl)c(CCC#N)cc4c3n2[C@H]2[C@H]3CN[C@@H]2C3)N(C(=O)C2CC2)C1 [Example 16]
≤ 100	++ (a Caco-2 value of >0.5 but ≤1)	≤ 100	–	–	Cc1cc(CO[C@H]2C[C@H](c3cc4c(C)nc5c(F)c(-c6cccc(Cl)c6Cl)c(CCC#N)cc5c4n3[C@H]3[C@H]4CN[C@@H]3C4)N(C(=O)C3CC3)[C@@H]2C)ns1 [Example 3]
≤ 100	+ (a Caco-2 value of ≤0.5)	≤ 100	–	–	Cc1nc2c(F)c(-c3cccc(Cl)c3Cl)c(CCC#N)cc2c2c1cc([C@H]1C[C@H](OCc3ccon3)CN1C(=O)C1CC1)n2[C@H]1[C@H]2CN[C@@H]1C2 [Example 12]
≤ 100	+++ (a Caco-2 value of >1)	≤ 100	–	–	COc1ncccc1O[C@H]1C[C@H](c2cc3c(C)nc4c(F)c(-c5cccc(Cl)c5Cl)c(CCC#N)cc4c3n2[C@H]2[C@H]3CN[C@@H]2C3)N(C(=O)C2CC2)[C@@H]1C [Example 49, 3-(1-((1R,4R,5S)-2-Azabicyclo[2.1.1]hexan-5-yl)-2-((2R,4S,5R)-1-(cyclopropanecarbonyl)-4-((2-methoxypyridin-3-yl)oxy)-5-methylpyrrolidin-2-yl)-7-(2,3-dichlorophenyl)-6-fluoro-4-methyl-1H-pyrrolo[3,2-c]quinolin-8-yl)propanenitrile]
≤ 100	+ (a Caco-2 value of ≤0.5)	≤ 100	–	–	Cc1nc2c(F)c(-c3cccc(Cl)c3Cl)c(CCC#N)cc2c2c1cc([C@H]1C[C@H](OCc3ccccc3F)CN1C(=O)C1CC1)n2[C@H]1[C@H]2CN[C@@H]1C2 [Example 20]
≤ 100	+ (a Caco-2 value of ≤0.5)	≤ 100	–	–	Cc1nc2c(F)c(-c3cccc(Cl)c3Cl)c(CCC#N)cc2c2c1cc([C@H]1C[C@H](Oc3cccnc3OC(F)F)CN1C(=O)C1CC1)n2[C@H]1[C@H]2CN[C@@H]1C2 [Example 37, 3-(1-((1R,4R,5S)-2-Azabicyclo[2.1.1]hexan-5-yl)-2-((2R,4S)-1-(cyclopropanecarbonyl)-4-((2-(difluoromethoxy)pyridin-3-yl)oxy)pyrrolidin-2-yl)-7-(2,3-dichlorophenyl)-6-fluoro-4-methyl-1H-pyrrolo[3,2-c]quinolin-8-yl)propanenitrile]
≤ 100	++ (a Caco-2 value of >0.5 but ≤1)	≤ 100	–	–	Cc1cc(F)cc(O[C@H]2C[C@H](c3cc4c([C@@H](C)O)nc5c(F)c(-c6cccc(Cl)c6Cl)c(CCC#N)cc5c4n3[C@H]3[C@H]4CN[C@@H]3C4)N(C(=O)C3CC3)C2)n1 [Example 62, 3-(1-((1R,4R,5S)-2-Azabicyclo[2.1.1]hexan-5-yl)-2-((2R,4S)-1-(cyclopropanecarbonyl)-4-((4-fluoro-6-methylpyridin-2-yl)oxy)pyrrolidin-2-yl)-7-(2,3-dichlorophenyl)-6-fluoro-4-((R)-1-hydroxyethyl)-1H-pyrrolo[3,2-c]quinolin-8-yl)propanenitrile]
–	–	–	≤ 100	≤ 100	Cc1nc2c(F)c(-c3cccc(Cl)c3Cl)c(CCC#N)cc2c2c1cc([C@H]1C[C@H](Oc3cccc(C(F)(F)F)c3)CN1C(=O)C1CC1)n2[C@H]1[C@H]2CN[C@@H]1C2 [Example 172]
–	–	–	≤ 100	≤ 100	Cc1nc2c(F)c(-c3cccc(Cl)c3Cl)c(CCC#N)cc2c2c1cc([C@H]1C[C@H](CCc3nccn3C)CN1C(=O)C1CC1)n2[C@H]1[C@H]2CN[C@@H]1C2 [Example 89]
–	–	–	≤ 100	≤ 100	Cc1nc2c(F)c(-c3cccc(Cl)c3Cl)c(CCC#N)cc2c2c1cc([C@H]1C[C@H](n3cc(C#N)nn3)CN1C(=O)C1CC1)n2[C@H]1[C@H]2CN[C@@H]1C2 [Example 345]
–	–	–	≤ 100	≤ 100	[2H]C([2H])(O[C@H]1C[C@H](c2cc3c(C)nc4c(F)c(-c5cccc(Cl)c5Cl)c(CCC#N)cc4c3n2[C@H]2[C@H]3CN[C@@H]2C3)N(C(=O)C2CC2)[C@@H]1C)c1nscc1C [Example 242]
